Experiment [1] deals with T1, NHE (Na^+ /H^+ exchanger) (Rattus norvegicus, UniProt P26431).
T1 construct: A rat mesenteric artery was isolated; from tissue; host or cells: isolated rat mesenteric artery segments
As to the kind of experiment: NHE inhibitory activity (recovery of the pH in cells after acid load, BCECF, rat mesenteric artery). The format is cell-based. Particulars: read-out: Percent NHE inhibition (%); for inhibition at 0.1 µM: Conc. 0.1 μM; for inhibition at 1 µM: Conc. 1 μM. As to the method:
The NHE inhibitory activity was measured by the following method using a pH in cells as an index.
A rat mesenteric artery was isolated, and was loaded with a pH-sensitive dye BCECF. Subsequently, the tissue segments were mounted in a bath of an intracellular ion concentration measurement device (CAF-110, manufactured by Japan Spectral Co., Ltd.). The pH in cells was measured in terms of a ratio of fluorescent intensities through 2-wavelength excitation of 495 nm (pH-sensitive wavelength)/450 nm (pH-non-sensitive wavelength).
The pH in cells was shifted into acid through pretreatment with 20 mM ammonium chloride to activate NHE. At this time, when Na^+ ions were absent in an external solution, the intracellular acidosis was maintained. When Na^+ ions were present in an external solution, the pH in cells was recovered to a control value. This recovery of the pH in cells was ascribable to the activation of NHE. The NHE inhibitory activity of the medication was examined depending on whether or not this recovery was suppressed. The percent NHE inhibition was calculated from a change in pH (ΔpH) measured by the above-mentioned method using the following formula.
Percent NHE inhibition (%)={1-ΔpH (in the presence of a medication)/ΔpH (in the absence of a medication)}×100
This test was conducted by the method of C. D. Foster et al. [Am. J. Physiol., 262, 31, H1651-H1655 (1992)]. For comparison, the test was conducted with respect to guanidinocarbonylisoquinoline derivatives described in JP A 6-211799 (Family: EP590455).

For the next experiment, the system named is rat. As to the kind of experiment: Effect on ischemic arrhythmia in the rat (left coronary artery ligated for 30 minutes). The format is in vivo. Particulars: 1 mg/kg i.v., five minutes before the ligation; rats with arrhythmia / rats. The protocol: A rat was anesthetized with pentobarbital, and the left chest was opened under artificial respiration. Then, the left coronary artery was ligated for 30 minutes. The effect of the test compound on ischemic arrhythmia was examined. The test agent was administered intravenously (i.v.) five minutes before the ligation. The arrhythmias were evaluated according to the guidelines of the Lambeth conventions [Cardiovasc. Res., 22, 447-455 (1988)].

Molecules are shown by their SMILES.

T1 sequence (P26431 whole entry): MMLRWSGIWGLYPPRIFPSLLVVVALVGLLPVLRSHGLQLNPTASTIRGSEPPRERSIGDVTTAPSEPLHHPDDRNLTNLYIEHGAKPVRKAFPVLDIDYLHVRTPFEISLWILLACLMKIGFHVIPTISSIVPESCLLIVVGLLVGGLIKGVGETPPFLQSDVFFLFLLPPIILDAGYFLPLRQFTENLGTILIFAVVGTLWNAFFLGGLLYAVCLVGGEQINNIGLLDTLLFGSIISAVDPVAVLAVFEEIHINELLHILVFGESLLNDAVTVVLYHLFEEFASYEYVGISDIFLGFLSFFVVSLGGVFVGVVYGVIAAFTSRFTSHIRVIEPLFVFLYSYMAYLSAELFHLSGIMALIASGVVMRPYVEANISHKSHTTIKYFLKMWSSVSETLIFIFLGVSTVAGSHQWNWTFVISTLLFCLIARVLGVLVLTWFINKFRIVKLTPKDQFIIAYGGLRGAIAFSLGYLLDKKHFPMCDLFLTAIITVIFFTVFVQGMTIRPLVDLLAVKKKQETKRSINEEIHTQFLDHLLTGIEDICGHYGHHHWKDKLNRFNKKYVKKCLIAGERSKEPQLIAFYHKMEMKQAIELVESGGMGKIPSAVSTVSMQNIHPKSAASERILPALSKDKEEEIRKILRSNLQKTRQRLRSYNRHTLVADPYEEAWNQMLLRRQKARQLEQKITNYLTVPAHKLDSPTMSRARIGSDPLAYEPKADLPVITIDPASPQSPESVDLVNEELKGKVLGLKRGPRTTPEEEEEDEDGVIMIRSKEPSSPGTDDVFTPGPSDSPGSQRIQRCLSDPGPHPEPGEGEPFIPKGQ
T1 sequence (P61023 2-195 partner limits assumed): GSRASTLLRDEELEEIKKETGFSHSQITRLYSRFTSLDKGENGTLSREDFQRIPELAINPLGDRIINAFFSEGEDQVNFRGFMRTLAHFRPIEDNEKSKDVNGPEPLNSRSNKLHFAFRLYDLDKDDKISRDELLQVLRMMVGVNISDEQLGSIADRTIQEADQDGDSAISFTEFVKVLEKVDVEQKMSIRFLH

A word on the inhibition: it is how much of the control response was suppressed. As to `Cc1cccc2c(C(=O)N=C(N)N)cc(-c3ccccc3)nc12` [Example 24, 2-phenyl-8-methylquinoline-4-carbonylguanidine], in experiment [1], the inhibition at 0.1 µM came out at 8.1% and the inhibition at 1 µM was 50%.
Consider `CC(=O)Nc1cccc2c(C(=O)N=C(N)N)cc(-c3ccccc3)nc12` [Example 49, 2-phenyl-8-acetylaminoquinoline-4-carbonylguanidine], for which, in experiment [1], the inhibition at 0.1 µM turned out to be 20.8% and the inhibition at 1 µM is 51.2%.
For `NC(N)=NC(=O)c1cc(-c2ccccc2)nc2ccc(Cl)cc12` [Example 29, 2-phenyl-6-chloroquinoline-4-carbonylguanidine], in experiment [1], the inhibition at 0.1 µM was determined as 0% and the inhibition at 1 µM stood at 38.6%.
As to `COc1cc(OC)c2nc(-c3ccccc3)cc(C(=O)N=C(N)N)c2c1` [Example 40, 2-phenyl-6,8-dimethoxyquinoline-4-carbonylguanidine], in experiment [1], the inhibition at 0.1 µM amounted to 18.3% and the inhibition at 1 µM came to 31%.
The matching figures for `Cc1cc(C)c(-c2cc(C(=O)N=C(N)N)c3ccccc3n2)c(C)c1` [Example 8, 2-(2',4',6'-trimethylphenyl)quinoline-4-carbonylguanidine]: 23.7% and 36.3%.
The matching figures for `NC(N)=NC(=O)c1cc(-c2ccccc2C(F)(F)F)nc2ccccc12` [Example 11, 2-(2'-trifluoromethylphenyl)quinoline-4-carbonylguanidine]: 22.7% and 46.1%.
In the same order, the values of `NC(N)=NC(=O)c1cc(-c2ccccc2)nc2c(Cl)cccc12` [Example 31, 2-phenyl-8-chloroquinoline-4-carbonylguanidine] are 12% and 57%.
For `NC(N)=NC(=O)c1cc(-c2cccc([N+](=O)[O-])c2)nc2ccccc12` [Example 19, 2-(3'-nitrophenyl)quinoline-4-carbonylguanidine], in experiment [1], the inhibition at 0.1 µM turned out to be 22.3% and the inhibition at 1 µM came out at 35.6%.
Take `NC(N)=NC(=O)c1cc(-c2ccccc2Cl)nc2ccccc12` [Example 14, 2-(2'-chlorophenyl)quinoline-4-carbonylguanidine]: in experiment [1], the inhibition at 0.1 µM is 28.8% and the inhibition at 1 µM came to 34.3%.
The matching figures for `COc1cccc2c(C(=O)N=C(N)N)cc(-c3ccccc3)nc12` [Example 35, 2-phenyl-8-methoxyquinoline-4-carbonylguanidine]: 47.4% and 63.6%.
The matching figures for `NC(N)=NC(=O)c1cc(-c2ccc(F)cc2)nc2ccccc12` [Example 13, 2-(4'-fluorophenyl)quinoline-4-carbonylguanidine]: 14.4% and 39.8%.
The matching figures for `COCOc1ccc2c(C(=O)N=C(N)N)cc(-c3ccccc3C)nc2c1` [Example 45, 2-(2'-methylphenyl)-7-methoxymethyloxyquinoline-4-carbonylguanidine]: 35% and 46.5%.
As for `Cc1cc(Cl)cc2c(C(=O)N=C(N)N)cc(-c3ccccc3)nc12` [Example 32, 2-phenyl-6-chloro-8-methylquinoline-4-carbonylguanidine], in experiment [1], the inhibition at 0.1 µM is 28.6% and the inhibition at 1 µM is 35.7%.
`COc1ccc2c(C(=O)N=C(N)N)cc(-c3ccccc3)nc2c1` [Example 34, 2-phenyl-7-methoxyquinoline-4-carbonylguanidine]: in experiment [1], the inhibition at 0.1 µM came out at 29.8% and the inhibition at 1 µM was found to be 53%.
For `COc1cc(OC)c2c(C(=O)N=C(N)N)cc(-c3ccccc3)nc2c1` [Example 36, 2-phenyl-5,7-dimethoxyquinoline-4-carbonylguanidine], in experiment [1], the inhibition at 0.1 µM was found to be 53.2% and the inhibition at 1 µM is 69.9%. Besides, in the experiment with rat, the “Incidence of arrhythmia, VF (ventricular fibrillation)” value is 0/4 and the “Incidence of arrhythmia, VT (ventricular tachycardia)” value is reported as 2/4.
For the compound `Cc1ccc(-c2cc(C(=O)N=C(N)N)c3ccccc3n2)cc1` [Example 2, 2-(4'-methylphenyl)quinoline-4-carbonylguanidine], in experiment [1], the inhibition at 0.1 µM was determined as 10.6% and the inhibition at 1 µM was 41.4%.
The matching figures for `CC(C)c1ccccc1-c1cc(C(=O)N=C(N)N)c2ccccc2n1` [Example 5, 2-(2'-isopropylphenyl)quinoline-4-carbonylguanidine]: 29.3% and 42.3%.
In the same order, the values of `NC(N)=NC(=O)c1cc(-c2cccc(N)c2)nc2ccccc12` [Example 20, 2-(3'-aminophenyl)quinoline-4-carbonylguanidine] are 36.2% and 42.2%.
Take `COc1cc(OC)c2c(C(=O)N=C(N)N)cc(-c3ccccc3C)nc2c1` [Example 37, 2-(2'-methylphenyl)-5,7-dimethoxyquinoline-4-carbonylguanidine]: in experiment [1], the inhibition at 0.1 µM is 70.8% and the inhibition at 1 µM was 84.2%. Besides, in the experiment with rat, the “Incidence of arrhythmia, VF (ventricular fibrillation)” value is recorded as 0/5 and the “Incidence of arrhythmia, VT (ventricular tachycardia)” value was 3/5.
With `COc1ccc2c(C(=O)N=C(N)N)cc(-c3ccccc3C)nc2c1OC` [Example 43, 2-(2'-methylphenyl)-7,8-dimethoxyquinoline-4-carbonylguanidine], in experiment [1], the inhibition at 0.1 µM is 28% and the inhibition at 1 µM was 37.6%.
In the case of `NC(N)=NC(=O)c1cc(-c2ccccc2)nc2ccccc12` [Example 1, 2-phenylquinoline-4-carbonylguanidine], in experiment [1], the inhibition at 0.1 µM was 5.2% and the inhibition at 1 µM turned out to be 52.8%.
The matching figures for `Cc1ccc(-c2cc(C(=O)N=C(N)N)c3ccccc3n2)cc1C` [Example 7, 2-(3',4'-dimethylphenyl)quinoline-4-carbonylguanidine]: 33.1% and 38.8%.
The matching figures for `Cc1ccccc1-c1cc(C(=O)N=C(N)N)c2ccccc2n1` [Example 4, 2-(2'-methylphenyl)quinoline-4-carbonylguanidine]: 49.2% and 65.6%.
On to `Cc1ccccc1-c1cc(C(=O)N=C(N)N)c2ccc(O)cc2n1` [Example 46, 2-(2'-methylphenyl)-7-hydroxyquinoline-4-carbonylguanidine], for which, in experiment [1], the inhibition at 0.1 µM was 39.3% and the inhibition at 1 µM turned out to be 48.8%.
The matching figures for `COc1cc2nc(-c3ccccc3C)cc(C(=O)N=C(N)N)c2cc1OC` [Example 39, 2-(2'-methylphenyl)-6,7-dimethoxyquinoline-4-carbonylguanidine]: 3.4% and 41.5%.
The matching figures for `Cc1cccc(-c2cc(C(=O)N=C(N)N)c3ccccc3n2)c1` [Example 3, 2-(3'-methylphenyl)quinoline-4-carbonylguanidine]: 21.2% and 59.8%.
The matching figures for `Cc1ccc2nc(-c3ccccc3)cc(C(=O)N=C(N)N)c2c1` [Example 22, 2-phenyl-6-methylquinoline-4-carbonylguanidine]: 28.9% and 57.9%.
Take `CS(=O)(=O)Nc1cccc2c(C(=O)N=C(N)N)cc(-c3ccccc3)nc12` [Example 50, 2-phenyl-8-methanesulfonylaminoquinoline-4-carbonylguanidine]: in experiment [1], the inhibition at 0.1 µM turned out to be 46.2% and the inhibition at 1 µM was 66.2%.
In the same order, the values of `COCCOc1cccc2c(C(=O)N=C(N)N)cc(-c3ccccc3)nc12` [Example 44, 2-phenyl-8-methoxyethyloxyquinoline-4-carbonylguanidine] are 28.4% and 62.9%.
The matching figures for `Cc1ccc2c(C(=O)N=C(N)N)cc(-c3ccccc3)nc2c1` [Example 23, 2-phenyl-7-methylquinoline-4-carbonylguanidine]: 2.8% and 49.8%.
The matching figures for `NC(N)=NC(=O)c1cc(-c2ccccc2)nc2cccc(Cl)c12` [Example 28, 2-phenyl-5-chloroquinoline-4-carbonylguanidine]: 33.7% and 63.3%.
For `Cc1ccc(-c2cc(C(=O)N=C(N)N)c3ccccc3n2)c(C)c1` [Example 6, 2-(2',4'-dimethylphenyl)quinoline-4-carbonylguanidine], in experiment [1], the inhibition at 0.1 µM came to 36.4% and the inhibition at 1 µM came to 55.3%.
As to `Cc1c(-c2ccccc2)nc2ccccc2c1C(=O)N=C(N)N` [Example 21, 2-phenyl-3-methylquinoline-4-carbonylguanidine], in experiment [1], the inhibition at 0.1 µM came to 1.5% and the inhibition at 1 µM turned out to be 45%.
`NC(N)=NC(=O)c1cc(-c2ccccc2)nc2c(N)cccc12` [Example 48, 2-phenyl-8-aminoquinoline-4-carbonylguanidine]: in experiment [1], the inhibition at 0.1 µM amounted to 30.6% and the inhibition at 1 µM amounted to 41.7%.

These data come from patent publication US5627193A, “Quinoline-4-carbonylguanidine derivatives, process for producing the same and pharmaceutical preparations containing the compounds” (Mitsui Toatsu Chemicals, Inc., priority 1995, dated 1997).
